In ChEMBL document CHEMBL1828556, “Synthesis, hypnotic properties and molecular modeling studies of 1,2,7,9-tetraaza-spiro[4.5]dec-2-ene-6,8,10-triones” (Eur J Med Chem, 2011):

Assays:
Mus musculus [1] = experiment: Potentiation of sodium thiopental-induced hypnotic/sedative activity in Albino mouse assessed as time elapsed between injection of sodium thiopental and loss of righting reflex at 25 mg/kg, ip administered 1 hr prior challenge (Rvb =2.66 +/- 0.23 mins); type: functional; details: route intraperitoneal
Mus musculus [2] = experiment: Potentiation of sodium thiopental-induced hypnotic/sedative activity in Albino mouse assessed as sleeping time at 25 mg/kg, ip administered 1 hr prior challenge relative to control; type: functional; details: route intraperitoneal
Mus musculus [3] = experiment: Toxicity in Albino mouse assessed as mortality at 250 mg/kg, ip after 24 hrs; type: organism-based; set-up: dose 250 mg/kg, route intraperitoneal; details: in vivo
Mus musculus [4] = experiment: Toxicity in Albino mouse assessed as mortality at 500 mg/kg, ip after 24 hrs; type: organism-based; set-up: dose 500 mg/kg, route intraperitoneal; details: in vivo
Mus musculus [5] = experiment: Toxicity in Albino mouse assessed as mortality at 750 mg/kg, ip after 24 hrs; type: organism-based; set-up: dose 750 mg/kg, route intraperitoneal; details: in vivo
Mus musculus [6] = experiment: Toxicity in Albino mouse assessed as toxic symptoms at 250 mg/kg, ip after 24 hrs; type: organism-based; set-up: dose 250 mg/kg, route intraperitoneal; details: in vivo
Mus musculus [7] = experiment: Toxicity in Albino mouse assessed as toxic symptoms at 500 mg/kg, ip after 24 hrs; type: organism-based; set-up: dose 500 mg/kg, route intraperitoneal; details: in vivo
Mus musculus [8] = experiment: Toxicity in Albino mouse assessed as toxic symptoms at 750 mg/kg, ip after 24 hrs; type: organism-based; set-up: dose 750 mg/kg, route intraperitoneal; details: in vivo

| Structure (SMILES) | Time (Mus musculus [1]) | Activity (Mus musculus [2]) | Activity (Mus musculus [3]) | Activity (Mus musculus [4]) | Activity (Mus musculus [5]) | Activity (Mus musculus [6]) | Activity (Mus musculus [7]) | Activity (Mus musculus [8]) |
| --- | --- | --- | --- | --- | --- | --- | --- | --- |
| CN1C(=O)N(C)C(=O)C2(C1=O)C(c1ccc(Cl)cc1)C(c1ccccc1)=NN2c1ccccc1 (stereo not drawn) | 3.47 min | 20% |  |  |  |  |  |  |
| CN1C(=O)N(C)C(=O)C2(C1=O)C(c1ccc(Cl)cc1Cl)C(c1ccccc1)=NN2c1ccccc1 (stereo not drawn) | 2.12 min | 501.2% | Non-toxic | Non-toxic | Non-toxic | Non-toxic | Non-toxic | Non-toxic |
| CN1C(=O)N(C)C(=O)C2(C1=O)C(c1ccc(N(C)C)cc1)C(c1ccccc1)=NN2c1ccccc1 (stereo not drawn) | 2.91 min | 299.4% | Non-toxic | Non-toxic | Non-toxic | Non-toxic | Non-toxic | Non-toxic |
| CN1C(=O)N(C)C(=O)C2(C1=O)C(c1cccs1)C(c1ccccc1)=NN2c1ccccc1 (stereo not drawn) | 1.79 min | -25.8% |  |  |  |  |  |  |
| Cc1ccc(C2C(c3ccccc3)=NN(c3ccccc3)C23C(=O)N(C)C(=O)N(C)C3=O)cc1 (stereo not drawn) | 2.92 min | 311.3% | Non-toxic | Non-toxic | Non-toxic | Non-toxic | Non-toxic | Non-toxic |
| Cc1ccc(C2C(c3ccccc3)=NN(c3ccccc3)C23C(=O)N(C)C(=O)N(C)C3=O)o1 (stereo not drawn) | 2.66 min | 904% | Non-toxic | Non-toxic | Non-toxic | Non-toxic | Non-toxic | Non-toxic |
| CN1C(=O)N(C)C(=O)C2(C1=O)C(c1ccc(F)cc1)C(c1ccccc1)=NN2c1ccccc1 (stereo not drawn) | 2 min | 358.6% | Non-toxic | Non-toxic | Non-toxic | Non-toxic | Non-toxic | Non-toxic |
| CN1C(=O)N(C)C(=O)C2(C1=O)C(c1ccccc1)C(c1ccccc1)=NN2c1ccccc1 (stereo not drawn) | 3 min | 1.3% |  |  |  |  |  |  |
| COc1ccc(C2C(c3ccccc3)=NN(c3ccccc3)C23C(=O)N(C)C(=O)N(C)C3=O)cc1 (stereo not drawn) | 5.25 min | -20.3% |  |  |  |  |  |  |
| CN1C(=O)N(C)C(=O)C2(C1=O)C(c1ccc(Cl)cc1)C(c1ccccc1)=NN2c1cccc(Cl)c1 (stereo not drawn) | 2.3 min | 340.9% | Non-toxic | Non-toxic | Non-toxic | Non-toxic | Non-toxic | Non-toxic |
| CN1C(=O)N(C)C(=O)C2(C1=O)C(c1ccccc1)C(c1ccccc1)=NN2c1cccc(Cl)c1 (stereo not drawn) | 1.85 min | 192% |  |  |  |  |  |  |
